Experimental data from patent US12213485B2, “Synergistic methods of using benzoxaborole compounds and preservative gases as an antimicrobial for crops” (AGROFRESH INC., priority 2016, dated 2025).

Legend:
[1] = tested on: Mucor piriformis (MUCOPI) on strawberries; assay: In vivo disease severity on wound-inoculated strawberries, benzoxaborole and CO2 chamber treatment
Description: (§1) The following experiments were used to determine synergy between benzoxaborole Compounds A, B, and/or C and preservative gases, such as carbon dioxide (CO2) and sulfur dioxide (SO2). Specific rates or any other unique conditions are noted within the corresponding results tables. Each experiment comprised an air-tight 36 liter (L) chamber (Fisher Scientific, P/N: 08-642-23C), fitted with a bulkhead septum port (Swagelok, P/N: SS-400-61, Solon, OH) used for treatment delivery, as well as for monitoring (using needle extraction) carbon dioxide (CO2), sulfur dioxide (SO2), oxygen (O2) or other headspace samples. A variable speed fan (Thermaltake, Mobile Fan II, P/N: A1888, Taipei City, Taiwan) set to low was also used to circulate the headspace atmosphere.
For in vivo experiments, eight strawberry fruits per repetition were surface sterilized with a 70% ethanol solution. After sterilization, the strawberries were rinsed twice with deionized water. Each strawberry fruit was wounded using a T15 screwdriver tip to a uniform depth of eight mm (8 mm). Each fruit wound was inoculated with 20 μL of 1×10^5 spores/ml pathogen spore suspension of B. cinerea or M. piriformis. The strawberries were then placed with the stem facing downwards inside a 1-pound strawberry clamshell.
(§2) For treatment, the inoculated agar plates and clamshells containing fruits (e.g., strawberries and grapes) were placed inside a 36 L experimental chamber unit, which was then sealed prior to commencement of compound treatments. The chamber remained sealed throughout the duration of the experiment except for addition of treatment to the chamber, and post-treatment ventilation.
(§3) Benzoxaborole Compound A or Compound B was dissolved in acetone and dispensed onto a 60 mm Whatman #1 filter paper disk using a pipette. The acetone was permitted to evaporate for five minutes before the disk was placed on a watch glass in each chamber.
(§4) A 12% CO2 headspace treatment was then established in the chamber by permitting 10 grams (g) of crushed dry ice placed in a weigh boat in the chamber to evaporate in the sealed chamber. However, the bulkhead port of the chamber was loosened to permit the release of internal pressure. Optionally, a fan was used during the initial hours of treatment (i.e., up to about 6 hours of treatment) to ensure uniform treatment exposure of fruits and plates.
(§5) Untreated controls and CO2 treated chambers contained an acetone-treated disk with similar evaporation for five minutes. CO2 and O2 levels in the chamber were monitored using a handheld gas detector (Dansensor Checkpoint II; P/N 600111, Ringsted, Denmark). Temperature and relative humidity were also monitored within the chamber using data loggers (Onset HOBO; P/N U12-013, Bourne, MA).
(§6) The chamber for all in vitro and in vivo experiments was held at room temperature (i.e., from about 21° C. to about 23° C.) typically for about 3.5 days (i.e., about 84 hours) of treatment exposure. Chambers were then vented. After an additional 2-3 days with the chamber at room temperature, post-treatment radial growth (in mm) of each in vitro pathogen (see Examples 1-7, Tables 1-7) was measured on the inoculated plates using electronic calipers (Mitutoyo, P/N: CD-6-CX, Aurora, IL). In addition, the point of inoculation on fruits was assessed for indication of in vivo disease incidence (e.g., yes or no) and severity of disease incidence (see Examples 8-16, Tables 8-16). Disease severity was rated on a scale ranging from 0 to 4, where “0” indicated no disease severity, “1” indicated minimal disease severity, “2” indicated medium disease severity, “3” indicated high disease severity, and “4” indicated exceptionally high disease severity. […]

[2] = tested on: Penicillium expansum (PENIEX); assay: In vitro fungal growth on inoculated agar plates, benzoxaborole and CO2 chamber treatment; format: cell-based
Description: as §1
(§7) In vitro and in vivo experiments were performed concurrently in triple replicates (i.e., triplicate) unless otherwise noted. For in vitro experiments, a single 6-well microtiter plate or three, 10-cm petri plates each containing half strength Potato Dextrose Agar were prepared. Each well or plate was inoculated with 1 microliter (μL) of 1×10^5 spores/ml of the appropriate pathogenic spore suspension (e.g., Botrytis cinerea, BOTRCI; Penicillium expansum, PENIEX; Mucor piriformis, MUCOPI; Fusarium sambucinum FUSASA; or Aspergillus brasiliensis, ASPEBR). The inoculated microtiter or petri plates were then sealed with a breathable film (AeraSeal; P/N: B-100, Excel Scientific, Victorville, CA).
as §2, §3, §4, §5, §6

[3] = tested on: Aspergillus brasiliensis (ASPEBR); assay: as above; format: cell-based
Description: as §1, §7, §2, §3, §4, §5, §6

[4] = tested on: Mucor piriformis (MUCOPI); assay: as above; format: cell-based
Description: as §1, §7, §2, §3, §4, §5, §6

[5] = tested on: Fusarium sambucinum (FUSASA); assay: as above; format: cell-based
Description: as §1, §7, §2, §3, §4, §5, §6

[6] = tested on: Botrytis cinerea (BOTRCI); assay: as above; format: cell-based
Description: as §1, §7, §2, §3, §4, §5, §6

[7] = Table 1, compound 0.14 mg/L + 12% CO2, Colby equation E=x+y−x*y/100
[8] = Table 1, compound 0.14 mg/L + 12% CO2, evaluated 2 days after treatment completion, 6-well microtiter plate, 4 replicates, fan first 6 hours
[9] = Table 1, compound alone 0.14 mg/L, evaluated 2 days after treatment completion, 6-well microtiter plate, 4 replicates, fan first 6 hours
[10] = Table 4, compound 0.14 mg/L + 12% CO2, Colby equation E=x+y−x*y/100
[11] = Table 4, compound 0.14 mg/L + 12% CO2, evaluated 2 days after treatment completion, 6-well microtiter plate, fan first 6 hours
[12] = Table 4, compound alone 0.14 mg/L, evaluated 2 days after treatment completion, 6-well microtiter plate, fan first 6 hours
[13] = Table 5, compound 0.14 mg/L + 12% CO2, Colby equation E=x+y−x*y/100
[14] = Table 5, compound 0.14 mg/L + 12% CO2, evaluated 2 days after treatment, 6-well plate, fan first 6 hours, >90% R.H.
[15] = Table 5, compound alone 0.14 mg/L, evaluated 2 days after treatment, 6-well plate, fan first 6 hours, >90% R.H.
[16] = Table 3, compound 0.14 mg/L + 12% CO2, Colby equation E=x+y−x*y/100
[17] = Table 3, compound 0.14 mg/L + 12% CO2, evaluated 2 days after treatment, 6-well microtiter plate, fan first 6 hours, >90% R.H.
[18] = Table 3, compound alone 0.14 mg/L, evaluated 2 days after treatment, 6-well microtiter plate, fan first 6 hours, >90% R.H.

SMILES: OB1OCc2cc(F)ccc21 [Compound A]
- Colby Calculation ([1]; Table 10, compound 0.14 mg/L + 12% CO2, Colby equation E=x+y−x*y/100): 106.8
- Growth (Severity, 0 to 4) Cmpd + 12% CO2 ([1]; Table 10, compound 0.14 mg/L + 12% CO2, evaluated 2 days after treatment, fan first 6 hours, >90% R.H.): 0.2
- Growth (Severity, 0 to 4) Cmpd ([1]; Table 10, compound alone 0.14 mg/L, evaluated 2 days after treatment, fan first 6 hours, >90% R.H.): 0.5
- Colby Calculation [2, 7]: 225.0
- Growth (diameter, mm) Cmpd + 12% CO2 [2, 8]: 3.3 mm
- Growth (diameter, mm) Cmpd [2, 9]: 17.0 mm
- Colby Calculation ([2]; Table 2, compound 0.14 mg/L + 12% CO2, Colby equation E=x+y−x*y/100): 119.7
- Growth (diameter, mm) Cmpd + 12% CO2 ([2]; Table 2, compound 0.14 mg/L + 12% CO2, evaluated 2 days after treatment, 6-well microtiter plate, fan first 6 hours, >90% R.H.): 5.2 mm
- Growth (diameter, mm) Cmpd ([2]; Table 2, compound alone 0.14 mg/L, evaluated 2 days after treatment, 6-well microtiter plate, fan first 6 hours, >90% R.H.): 9.7 mm
- Colby Calculation [2, 10]: 124.4
- Growth (diameter, mm) Cmpd + 12% CO2 [2, 11]: 0.5 mm
- Growth (diameter, mm) Cmpd [2, 12]: 6.4 mm
- Colby Calculation [2, 13]: 102.5
- Growth (diameter, mm) Cmpd + 12% CO2 [2, 14]: 8.6 mm
- Growth (diameter, mm) Cmpd [2, 15]: 10.2 mm
- Colby Calculation ([2]; Table 7, compound 0.035 mg/L + 12% CO2, Colby equation E=x+y−x*y/100): 114.7
- Growth (diameter, mm) Cmpd + 12% CO2 ([2]; Table 7, compound 0.035 mg/L + 12% CO2, evaluated 3 days after treatment, 10 cm Petri plates, fan continuous): 4.7 mm
- Growth (diameter, mm) Cmpd ([2]; Table 7, compound alone 0.035 mg/L, evaluated 3 days after treatment, 10 cm Petri plates, fan continuous): 10.6 mm
- Colby Calculation [3, 13]: 108.3
- Growth (diameter, mm) Cmpd + 12% CO2 [3, 14]: 0.0 mm
- Growth (diameter, mm) Cmpd [3, 15]: 2.6 mm
- Colby Calculation [4, 16]: 189.0
- Growth (diameter, mm) Cmpd + 12% CO2 [4, 17]: 11.0 mm
- Growth (diameter, mm) Cmpd [4, 18]: 22.3 mm
- Colby Calculation [5, 13]: 104.0
- Growth (diameter, mm) Cmpd + 12% CO2 [5, 14]: 3.8 mm
- Growth (diameter, mm) Cmpd [5, 15]: 5.0 mm
- Colby Calculation [6, 7]: 165.4
- Growth (diameter, mm) Cmpd + 12% CO2 [6, 8]: 0.0 mm
- Growth (diameter, mm) Cmpd [6, 9]: 16.3 mm
- Colby Calculation [6, 16]: 101.2
- Growth (diameter, mm) Cmpd + 12% CO2 [6, 17]: 4.5 mm
- Growth (diameter, mm) Cmpd [6, 18]: 5.5 mm
- Colby Calculation [6, 10]: 104.3
- Growth (diameter, mm) Cmpd + 12% CO2 [6, 11]: 0.0 mm
- Growth (diameter, mm) Cmpd [6, 12]: 1.5 mm
- Colby Calculation [6, 13]: 102.9
- Growth (diameter, mm) Cmpd + 12% CO2 [6, 14]: 3.0 mm
- Growth (diameter, mm) Cmpd [6, 15]: 3.6 mm
- Colby Calculation ([6]; Table 6, compound 0.14 mg/L + 12% CO2, Colby equation E=x+y−x*y/100): 108.2
- Growth (diameter, mm) Cmpd + 12% CO2 ([6]; Table 6, compound 0.14 mg/L + 12% CO2, evaluated 3 days after treatment, 10 cm petri plates, fan continuous): 6.4 mm
- Growth (diameter, mm) Cmpd ([6]; Table 6, compound alone 0.14 mg/L, evaluated 3 days after treatment, 10 cm petri plates, fan continuous): 13.2 mm
